According to ChEMBL document CHEMBL1123685, “Synthesis and antiviral activity of various 3'-azido, 3'-amino, 2',3'-unsaturated, and 2',3'-dideoxy analogues of pyrimidine deoxyribonucleosides against retroviruses” (1987):

Test system: Moloney murine leukemia virus
Assay: In vitro inhibitory activity against Moloney murine leukemia virus (M-MULV) replication, a mammalian T-lymphotropic retrovirus
Assay type: functional
Conditions: read-out: ED50 (the source's name)

Question: Which EC50 does the source give for `Cc1cn([C@H]2C[C@H](O)[C@@H](CN=[N+]=[N-])O2)c(=O)[nH]c1=O` here?
Answer: Its EC50 is greater than 100 µM.

Question: How did the EC50 turn out when `O=c1ccn([C@H]2CC[C@@H](CO)O2)c(=O)[nH]1` was run?
Answer: The EC50 was greater than 100 µM.

Question: `[N-]=[N+]=N[C@H]1C[C@H](n2cc(C(F)(F)F)c(=O)[nH]c2=O)O[C@@H]1CO` was tested. Which EC50 did it give?
Answer: Its EC50 is greater than 100 µM.

Question: How did the EC50 turn out when `[N-]=[N+]=N[C@H]1C[C@H](n2cc(Br)c(=O)[nH]c2=O)O[C@@H]1CO` was run?
Answer: Its EC50 is 1.5 µM.

Question: `N[C@H]1C[C@H](n2cc(C(F)(F)F)c(=O)[nH]c2=O)O[C@@H]1CO` was tested. Which EC50 did it give?
Answer: The EC50 was greater than 100 µM.

Question: `Cc1cn([C@H]2C[C@H](N=[N+]=[N-])[C@@H](CN=[N+]=[N-])O2)c(=O)[nH]c1=O` was tested. Which EC50 did it give?
Answer: Its EC50 is 17 µM.

Question: With `Cc1cn([C@H]2C[C@H](N=[N+]=[N-])[C@@H](CO)O2)c(=O)nc1N` as the molecule, how does the EC50 read?
Answer: Its EC50 is greater than 100 µM.

Question: Which EC50 does the source give for `[N-]=[N+]=N[C@H]1C[C@H](n2cc(F)c(N)nc2=O)O[C@@H]1CO` here?
Answer: The EC50 was greater than 100 µM.

Question: Which EC50 does the source give for `[N-]=[N+]=N[C@H]1C[C@H](n2ccc(N)nc2=O)O[C@@H]1CO` here?
Answer: Its EC50 is 58 µM.

Question: How did the EC50 turn out when `[N-]=[N+]=N[C@H]1C[C@H](n2cc(I)c(=O)[nH]c2=O)O[C@@H]1CO` was run?
Answer: The EC50 was 3 µM.

Question: How did the EC50 turn out when `Cc1cn([C@H]2C[C@H](N)[C@@H](CN)O2)c(=O)[nH]c1=O` was run?
Answer: Its EC50 is greater than 100 µM.

Question: With `[N-]=[N+]=N[C@H]1C[C@H](n2cc(F)c(=O)[nH]c2=O)O[C@@H]1CO` as the molecule, how does the EC50 read?
Answer: The EC50 was greater than 100 µM.

Question: `O=c1[nH]c(=O)n([C@H]2CC[C@@H](CO)O2)cc1/C=C/Br` was tested. Which EC50 did it give?
Answer: The EC50 was greater than 100 µM.

Question: `O=c1[nH]c(=O)n([C@H]2CC[C@@H](CO)O2)cc1I` was tested. Which EC50 did it give?
Answer: Its EC50 is greater than 100 µM.

Question: With `Nc1ccn([C@H]2C=C[C@@H](CO)O2)c(=O)n1` as the molecule, how does the EC50 read?
Answer: Its EC50 is 3.7 µM.

Question: For `O=c1[nH]c(=O)n([C@H]2CC[C@@H](CO)O2)cc1Br`, which EC50 is on record?
Answer: Its EC50 is greater than 100 µM.

Question: `Cc1cn([C@H]2C[C@H](O)[C@@H](CN)O2)c(=O)[nH]c1=O` was tested. Which EC50 did it give?
Answer: Its EC50 is greater than 100 µM.

Question: With `Cc1cn([C@H]2CC[C@@H](CO)O2)c(=O)[nH]c1=O` as the molecule, how does the EC50 read?
Answer: Its EC50 is greater than 100 µM.

Question: For `O=c1ccn([C@H]2C=C[C@@H](CO)O2)c(=O)[nH]1`, which EC50 is on record?
Answer: Its EC50 is greater than 100 µM.

Question: `Cc1cn([C@H]2C[C@H](N)[C@@H](CO)O2)c(=O)[nH]c1=O` [3-AMINO- 3-DEOXYTHYMIDINE] was tested. Which EC50 did it give?
Answer: Its EC50 is 42 µM.

Question: For `[N-]=[N+]=N[C@H]1C[C@H](n2ccc(=O)[nH]c2=O)O[C@@H]1CO` [NAVURIDINE], which EC50 is on record?
Answer: The EC50 was 52 µM.

Question: Which EC50 does the source give for `Cc1cn([C@H]2C=C[C@@H](CO)O2)c(=O)[nH]c1=O` [STAVUDINE] here?
Answer: The EC50 was 2.5 µM.

Question: For `Nc1ccn([C@H]2CC[C@@H](CO)O2)c(=O)n1` [ZALCITABINE], which EC50 is on record?
Answer: Its EC50 is 4 µM.

Question: `Cc1cn([C@H]2C[C@H](N=[N+]=[N-])[C@@H](CO)O2)c(=O)[nH]c1=O` [ZIDOVUDINE] was tested. Which EC50 did it give?
Answer: Its EC50 is 0.02 µM.

Test system: Human immunodeficiency virus 1
Assay: Activity against HTLV-III/LAV[…], was determined in vitro.
Assay type: functional
Conditions: read-out: ED50 (the source's name)

Question: How did the EC50 turn out when `[N-]=[N+]=N[C@H]1C[C@H](n2cc(Br)c(=O)[nH]c2=O)O[C@@H]1CO` was run?
Answer: Its EC50 is 2.3 µM.

Question: How did the EC50 turn out when `Cc1cn([C@H]2C[C@H](N=[N+]=[N-])[C@@H](CO)O2)c(=O)[nH]c1=O` [ZIDOVUDINE] was run?
Answer: The EC50 was 0.23 µM.

Test system: Moloney murine leukemia virus
Assay: Compound was tested against Moloney murine leukemia virus (M-MULV) in 3T3 cells, at a concentration of 10 uM
Assay type: functional
Conditions: NIH3T3

Question: `Cc1cn([C@H]2CC[C@@H](CO)O2)c(=O)[nH]c1=O` was tested. Which inhibition at 10 µM did it give?
Answer: Its inhibition at 10 µM is 50%.
